pEC50: −log10 of the molar value.
Assays:
[1] = system: MLL-AF9 cells; assay: MLL-AF9 leukemia cell growth inhibition, dose-response viability assay (CellTiterGlo); assay type: cell-based, murine; settings: Mus musculus, MLL-AF9, 120 h, read-out: MLL-AF9 EC50
Procedure: (§1) The potency of the compounds of Example 6 at inhibiting OCI-AML3 cell growth was tested using a procedure similar to that described for Mutritinib in Example 1. […] Murine MLL-AF9 leukemia cells (female cells) were generated by infection with VSV-G-pseudotyped MSCV MLL-AF9 IRES Puro (subcloned from a construct by Frédéric Barabé, Laval U, Quebec, QC, Canada).
(§2) Compounds were added to seeded cells in serial dilutions from 10 μM to 0.5 nM, in duplicates or quadruplicates.

[2] = system: OCI-AML3 cells; assay: OCI-AML3 cell growth inhibition, dose-response viability assay (CellTiterGlo); assay type: cell-based; settings: for pEC50: Homo sapiens, OCI-AML-3, 144 h, read-out: AML-3 EC50; for sensitivity of OCI-AML3 relative to OCI-AML5: dose-response curves OCI-AML3 and OCI-AML5
Procedure: Cell dose-response viability assays. […] In the initial screen, compounds were added to seeded cells in serial dilutions (10 dilutions, 1:3, starting from […] 20 μM), in duplicates.
as §1, §2

Row | SMILES | pEC50 [1] | pEC50 [2] | sensitivity of OCI-AML3 relative to OCI-AML5 [2] | OCI-AML3 cells sensitive to the compound (dose response) ([2]; OCI-AML3 cells)
1 | Fc1cc(C(F)(F)F)ccc1/C=C/c1nc(COc2ccc(CCCCc3nccs3)cc2)co1 [Compound 107, (E)-2-(2-fluoro-4-(trifluoromethyl)styryl)-4-((4-(4-(thiazol-2-yl)butyl)phenoxy)methyl) oxazole] | 5.00 to 6.00 | 5.00 to 6.00 |  | 
2 | C#CCNC(=O)c1ccc(/C=C/c2nc(COc3ccc(CCCCn4ccnn4)cc3)co2)cc1 [Compound 59, (E)-4-(2-(4-((4-(4-(1H-1,2,3-triazol-1-yl)butyl)phenoxy)methyl)oxazol-2-yl)vinyl)-N-(prop-2-yn-1-yl)benzamide] | 6.30 to 7.00 | 6.00 to 6.30 |  | 
3 | O=C(CCCn1ccnn1)c1ccc(OCc2coc(/C=C/c3ccc(Br)cc3F)n2)cc1 [Compound 20, (E)-1-(4-((2-(4-bromo-2-fluorostyryl)oxazol-4-yl)methoxy)phenyl)-4-(1H-1,2,3-triazol-1-yl)butan-1-one] | 6.30 to 7.00 | 6.00 to 6.30 |  | 
4 | Fc1ccc(/C=C/c2nc(COc3ccc(CCCCn4ccnn4)cc3)co2)c(F)c1 [Compound 45, (E)-4-((4-(4-(1H-1,2,3-triazol-1-yl)butyl)phenoxy)methyl)-2-(2,4-difluorostyryl)oxazole] | 6.30 to 7.00 | 7.00 to 7.30 |  | 
5 | CNCc1cn(CCCCc2ccc(OCc3coc(/C=C/c4ccc(C(F)(F)F)cc4)n3)cc2)nn1 [Compound 7, (E)-N-methyl-1-(1-(4-(4-((2-(4-(trifluoromethyl)styryl)oxazol-4-yl)methoxy)phenyl)butyl)-1H-1,2,3-triazol-4-yl)methanamine] | 6.00 to 6.30 | 5.00 to 6.00 |  | 
6 | O=[N+]([O-])c1ccc(/C=C/c2nc(COc3ccc(CCCCn4ccnn4)cc3)co2)c(F)c1 [Compound 65, (E)-4-((4-(4-(1H-1,2,3-triazol-1-yl)butyl)phenoxy)methyl)-2-(2-fluoro-4-nitrostyryl)oxazole] | > 7.30 | 7.00 to 7.30 |  | 
7 | OC(CCCn1ccnn1)c1ccc(OCc2coc(/C=C/c3ccc(C(F)(F)F)cc3F)n2)cc1 (centres unmarked) [Compound 23, (E)-1-(4-((2-(2-fluoro-4-(trifluoromethyl)styryl)oxazol-4-yl)methoxy)phenyl)-4-(1H-1,2,3-triazol-1-yl)butan-1-ol] | 7.00 to 7.30 | 6.30 to 7.00 |  | 
8 | Fc1ccc(/C=C/c2nc(COc3ccc(CCCCn4ccnn4)cc3)co2)cc1 [Compound 39, (E)-4-((4-(4-(1H-1,2,3-triazol-1-yl)butyl)phenoxy)methyl)-2-(4-fluorostyryl)oxazole] | 6.30 to 7.00 | 6.30 to 7.00 |  | 
9 | NCCc1nccn1CCCCc1ccc(OCc2coc(/C=C/c3ccc(C(F)(F)F)cc3)n2)cc1 [Compound 52, (E)-2-(1-(4-(4-((2-(4-(trifluoromethyl)styryl)oxazol-4-yl)methoxy)phenyl)butyl)-1H-imidazol-2-yl)ethanamine] | 5.00 to 6.00 | 5.00 to 6.00 |  | 
10 | [N-]=[N+]=Nc1ccc(/C=C/c2nc(COc3ccc(CCCCn4ccnn4)cc3)co2)c(F)c1 [Compound 67, (E)-4-((4-(4-(1H-1,2,3-triazol-1-yl)butyl)phenoxy)methyl)-2-(4-azido-2-fluorostyryl)oxazole] | 6.30 to 7.00 | 6.30 to 7.00 |  | 
11 | C#CCCC(=O)NCCc1cn(CCCCc2ccc(OCc3coc(/C=C/c4ccc(C(F)(F)F)cc4)n3)cc2)nn1 [Compound 14, (E)-N-(2-(1-(4-(4-((2-(4-(trifluoromethyl)styryl)oxazol-4-yl)methoxy)phenyl)butyl)-1H-1,2,3-triazol-4-yl)ethyl)pent-4-ynamide] | 6.00 to 6.30 | 5.00 to 6.00 |  | 
12 | O=[N+]([O-])c1ccc2cc(-c3nc(COc4ccc(CCCCn5ccnn5)cc4)co3)[nH]c2c1 [Compound 129, 4-((4-(4-(1H-1,2,3-triazol-1-yl)butyl)phenoxy)methyl)-2-(6-nitro-1H-indol-2-yl)oxazole] | > 7.30 | > 7.30 |  | 
13 | Cc1cn(CCCCc2ccc(OCc3coc(/C=C/c4ccc(C(F)(F)F)cc4F)n3)cc2)nn1 [Compound 92, (E)-2-(2-fluoro-4-(trifluoromethyl)styryl)-4-((4-(4-(4-methyl-1H-1,2,3-triazol-1-yl)butyl)phenoxy)methyl) oxazole] | 6.30 to 7.00 | 6.00 to 6.30 |  | 
14 | Fc1ccc2sc(-c3nc(COc4ccc(CCCCn5ccnn5)cc4)co3)cc2c1 [Compound 113, 4-((4-(4-(1H-1,2,3-triazol-1-yl)butyl)phenoxy)methyl)-2-(5-fluorobenzo[b]thiophen-2-yl)oxazole] | 6.30 to 7.00 | 6.00 to 6.30 |  | 
15 | OC(CCCn1ccnn1)c1ccc(OCc2coc(/C=C/c3ccc(C(F)(F)F)cc3)n2)cc1 (centres unmarked) [Compound 17, (E)-4-(1H-1,2,3-triazol-1-yl)-1-(4-((2-(4-(trifluoromethyl)styryl)oxazol-4-yl)methoxy)phenyl)butan-1-ol] | 7.00 to 7.30 | 6.30 to 7.00 |  | 
16 | Fc1cc(C(F)(F)F)ccc1/C=C/c1nc(COc2ccc(CCCCc3cncnc3)cc2)co1 [Compound 108, (E)-2-(2-fluoro-4-(trifluoromethyl)styryl)-4-((4-(4-(pyrimidin-5-yl)butyl)phenoxy)methyl)oxazole] | 5.00 to 6.00 | 5.00 to 6.00 |  | 
17 | Fc1cc(C(F)(F)F)ccc1CCc1nc(COc2ccc(CCCCn3ccnn3)cc2)co1 [Compound 11, 4-((4-(4-(1H-1,2,3-triazol-1-yl)butyl)phenoxy)methyl)-2-(2-fluoro-4-(trifluoromethyl)phenethyl)oxazole] | 5.00 to 6.00 | 5.00 to 6.00 |  | 
18 | O=S1(=O)CCN(CCCCc2ccc(OCc3coc(/C=C/c4ccc(C(F)(F)F)cc4F)n3)cc2)CC1 [Compound 137, (E)-4-(4-(4-((2-(2-fluoro-4-(trifluoromethyl)styryl)oxazol-4-yl)methoxy)phenyl)butyl)thiomorpholine 1,1-dioxide] | 6.00 to 6.30 |  |  | 
19 | C=C(C)[C@H]1Cc2c(ccc3c2O[C@@H]2COc4cc(OC)c(OC)cc4[C@@H]2C3=O)O1 [Rotenone, reference compound] |  |  | more sensitive than OCI-AML5 | 
20 | O=CNCCCCc1ccc(OCc2coc(/C=C/c3ccc(C(F)(F)F)cc3F)n2)cc1 [Compound 136, (E)-N-(4-(4-((2-(2-fluoro-4-(trifluoromethyl)styryl)oxazol-4-yl)methoxy)phenyl)butyl)formamide] | 6.30 to 7.00 |  |  | 
21 | COc1cc2c(cc1OC)[C@@H]1C(=O)c3ccc4c(c3O[C@@H]1CO2)C=CC(C)(C)O4 [Deguelin, reference compound] |  |  | more sensitive than OCI-AML5 | 
22 | CC[C@H]1/C=C/C=C/C[C@@H](C)[C@H](O)[C@@](C)(O)C(=O)[C@@H](C)[C@H](O)[C@@H](C)C(=O)[C@@H](C)[C@H](O)[C@@H](C)/C=C/C(=O)O[C@@H]2[C@H](C)[C@H](CC1)O[C@]1(CC[C@H](C)[C@H](C[C@@H](C)O)O1)[C@H]2C [Oligomycin, reference compound] |  |  | more sensitive than OCI-AML5 | 
23 | CNC(=O)CN1CCC(Oc2cc3c(Nc4cccc(Cl)c4F)ncnc3cc2OC)CC1 [Sapitinib, reference compound] |  |  |  | not
24 | Fc1cc(C(F)(F)F)ccc1/C=C/c1nc(COc2ccc(CCCCn3cnnc3)cc2)co1 [Compound 135, (E)-4-((4-(4-(4H-1,2,4-triazol-4-yl)butyl)phenoxy)methyl)-2-(2-fluoro-4-(trifluoromethyl)styryl)oxazole] | 6.00 to 6.30 |  |  | 

From US11760754B2, “Heterocyclic mitochondrial activity inhibitors and uses thereof” (UNIVERSITÉ DE MONTRÉAL, priority 2017, dated 2023)
